Twelve compounds from EP4596546A1, “SULFONAMIDE COMPOUND, AND HARMFUL-ARTHROPOD EXTERMINATION COMPOSITION CONTAINING SAME” (priority 2022, dated 2024) can be followed below.

Common to all, as to format: in vivo
The subject of experiment [1] is housefly (Musca domestica). The experiment is described as follows: Test Method 8: coated glass vial contact test, housefly female adults. The conditions noted are these: 24 h, 40 mg/m^2 on vial inner face, 1 day. Here is the method:
(§1) Next, Test Examples are used to show effects of the Present compounds on harmful arthropods. In the following Test Examples, the tests were carried out at 25°C.
An acetone solution which is adjusted to 800 ppm of each test compound is poured into a 20 mL glass vial, and the test compound is coated uniformly on inner face of the vial so as to 40 mg/m^2 of the test compound treated, and the vial is then dried.
5 housefly (Musca domestica) female adults are released into the treated vial, and the vial is then covered with lid. After the prescribed time, the state of the housefly is examined, and the mortality is calculated by the following equation. [formula]

The subject of experiment [2] is cotton worm (Spodoptera litura). The experiment is described as follows: Test Method 9: sprayed cabbage seedling, third-instar larvae of cotton worm (formulation per Formulation Example 5). The conditions noted are these: 144 h, spray 20 mL/seedling, after 6 days. Here is the method: as §1
(§2) Each test compound is made to a formulation according to a similar method to that described in the Formulation Example 5, and thereto is added water containing 0.03 v/v% of Shindain (registered trademark) to prepare a diluted solution containing a prescribed concentration of the test compound.
Cabbage (Brassicae oleracea) seedling (on the developmental stage of the third to fourth true leaf) is planted in a container, and the diluted solutions are sprayed to the seedling at a ratio of 20 mL/seedling. Thereafter, ten of third-instar larvae of cotton worm (Spodoptera litura) are released. After 6 days, the number of the surviving insects is counted, and the mortality of insects is calculated by the following equation. [formula]

Experiment [3] deals with diamondback moth (Plutella xylostella). The experiment is described as follows: Test Method 10: sprayed cabbage seedling, third-instar larvae of diamondback moth (formulation per Formulation Example 5). The conditions noted are these: 120 h, spray 20 mL/seedling, after 5 days. Here is the method:
as §1, §2
Cabbage (Brassicae oleracea) seedling (on the developmental stage of the third to fourth true leaf) is planted in a container, and the diluted solutions are sprayed to the seedling at a ratio of 20 mL/seedling. Thereafter, ten of third-instar larvae of diamondback moth (Plutella xylostella) are released. After 5 days, the number of the surviving insects is counted, and the mortality of insects is calculated by the following equation. [formula]

The test system is the same in experiment [4]. The experiment is described as follows: Test Method 4: sprayed cabbage, cut aerial part, second-instar larvae of diamondback moth. The conditions noted are these: 120 h, spray 20 mL/seedling, after 5 days. The procedure:
(§3) Next, Test Examples are used to show effects of the Present compounds on harmful arthropods. In the following Test Examples, the tests were carried out at 25°C. Each test compound is made to a formulation according to a similar method to that described in the Formulation Example 1, and thereto is added water containing 0.03 v/v% of Shindain (registered trademark) to prepare a diluted solution containing a prescribed concentration of the test compound. Cabbage (Brassicae oleracea) seedling (on the developmental stage of the second to third true leaf) is planted in a container, and the diluted solutions are sprayed to the seedling at a ratio of 20 mL/seedling. Thereafter, the aerial part of the seedling is cut out and then is installed into a container in which a filter paper is placed at the bottom of the container. Five of second-instar larvae of diamondback moth (Plutella xylostella) are released into the container. After 5 days, the number of the surviving insects is counted, and the mortality of insects is calculated by the following equation. [formula]

Experiment [5] deals with common house mosquito (Culex pipiens pallens). The experiment is described as follows: Test Method 12: last instar larvae of common house mosquito released into diluted solution. The conditions noted are these: 24 h, after 1 day. The procedure: as §1
Each test compound is formulated to a test formulation according to a similar method to that described in the Formulation Example 1, and water is added in preparing for a diluted solution containing a prescribed concentration of the test compound.
Into the diluted solution, 30 last instar larvae of common house mosquito (Culex pipiens pallens) are released, and after 1 day, the state of the house mosquito larvae is examined, and the mortality is calculated by the following equation. [formula]

Experiment [6] deals with cotton worm (Spodoptera litura). The experiment is described as follows: Test Method 3: sprayed cabbage, cut aerial part, second-instar larvae of cotton worm. The conditions noted are these: 120 h, spray 20 mL/seedling, after 5 days. Here is the method: as §3, with “cotton worm (Spodoptera litura)” for “diamondback moth (Plutella xylostella)”
The test system of experiment [7] is Western corn rootworm (Diabrotica virgifera virgifera). The experiment is described as follows: whole plant or invertebrate. The conditions noted are these: 120 h. Here is the method:
as §1
Each 1 mg of the test compounds is dissolved in 50 µL of a mixed solution consisting of 5% of polyoxyethylene sorbitan mono-cocoate and 95% of acetone by volume ratio. Thereto is added water containing 0.03% by volume of Shindain (registered trademark) to prepare a diluted solution containing a prescribed concentration of the test compound.
A young seedling of corn (Zea mays) is immersed into the diluted solution for 30 seconds. Thereafter, two seedlings are installed in a plastic petri dish (90 mm […]), and 10 of second-instar larvae of Western corn rootworm (Diabrotica virgifera virgifera) are released into the dish. After 5 days, the number of the dead insects is counted, and the mortality of insects is calculated by the following equation. Mortality (%) = (Numberofdeadinsects/10) × 100 [formula]

Experiment [8] deals with Haemaphysalis longicornis. The experiment is described as follows: Test Method 7: coated glass vial contact test, Haemaphysalis longicornis nymphs. The conditions noted are these: 48 h, 100 mg/m^2 on vial inner face, 2 days.
Protocol: An acetone solution which is adjusted to 2000 ppm of each test compound is poured into a 20 mL glass vial, and the test compound is coated uniformly on inner face of the vial so as to 100 mg/m^2 of the test compound treated, and the vial is then dried.
5 Haemaphysalis longicornis nymphs are released into the treated vial, and the vial is then covered with lid. After the prescribed time, the state of the Haemaphysalis longicornis is examined, and the mortality is calculated by the following equation.
Experiment [9] has as its system German cockroach (Blattella germanica). The experiment is described as follows: Test Method 6: coated glass vial contact test, German cockroach male adults. The conditions noted are these: 72 h, 40 mg/m^2 on vial inner face, 3 days. The procedure:
as §1
An acetone solution which is adjusted to 800 ppm of each test compound is poured into a 50 mL glass vial, and the test compound is coated uniformly on inner face of the vial so as to 40 mg/m^2 of the test compound treated, and the vial is then dried.
5 German cockroach (Blattella germanica) male adults are released into the treated vial, and the vial is then covered with lid. After the prescribed time, the state of the German cockroach is examined, and the mortality is calculated by the following equation. [formula]

A word on the mortality: it is the share of the test organisms that died.

Bounds are passed on as bounds.

`CNS(=O)(=O)c1c(-c2ccc(OCC(F)(F)C(F)(F)F)n(C)c2=O)nc2ccc(C(F)(F)F)cn12` [compound 1] displayed a mortality at 40 mg/m2, 40 mg/m2 in [1] of at least 80%. For the same compound, the mortality at 200 ppm in experiment [2] and in [3] was at least 80% in each case. For the same compound, the mortality at 50 ppm in experiment [3] was at least 80%. Moreover, the mortality at 500 ppm in [4] and in [6] was at least 80% throughout. The mortality at 3.5 ppm in experiment [5] is above 90%.
Consider `CCNS(=O)(=O)c1c(-c2ccc(OCC(F)(F)C(F)(F)F)n(C)c2=O)nc2ccc(Br)cn12` [compound 2], for which the mortality at 200 ppm in experiment [7], in [2] and in [3] was at least 80% in each case. The compound further registered a mortality at 50 ppm in experiment [3] of at least 80%. Further, the mortality at 500 ppm in experiment [4] and in experiment [6] was at least 80% in each case.
On to `CN(C)S(=O)(=O)c1c(-c2ccc(OCC(F)(F)C(F)(F)F)n(C)c2=O)nc2ccc(Br)cn12` [compound 3], for which the mortality at 200 ppm in experiment [7], in experiment [2] and in [3] was at least 80% each time. Further, the mortality at 50 ppm in experiment [3] was at least 80%. In addition, the mortality at 500 ppm in [4] and in [6] was at least 80% throughout.
Compound `CNS(=O)(=O)c1c(-c2ccc(OCC(F)(F)C(F)(F)F)n(C)c2=O)nc2ccc(I)cn12` [compound 4] showed a mortality at 100 mg/m2, 100 mg/m2 in experiment [8] of at least 80%. The compound also had a mortality at 40 mg/m2, 40 mg/m2 in experiment [1] of at least 80%. Also, the mortality at 200 ppm in experiment [7], in [2] and in [3] was at least 80% in each case. In [3], the mortality at 50 ppm was at least 80%. In addition, the mortality at 500 ppm in experiment [4] and in experiment [6] was at least 80% in each case. The mortality at 3.5 ppm in experiment [5] is above 90%.
In the case of `Cn1c(OCC(F)(F)C(F)(F)F)ncc(-c2nc3ccc(Br)cn3c2S(=O)(=O)NC2CC2)c1=O` [compound 5], the mortality at 40 mg/m2, 40 mg/m2 in experiment [1] and in experiment [9] was at least 80% each time. Besides, the mortality at 200 ppm in experiment [2] and in [3] was at least 80% each time. Moreover, the mortality at 50 ppm in experiment [3] was at least 80%. The mortality at 500 ppm in experiment [4] and in experiment [6] was at least 80% each time. Moreover, in [5], the mortality at 3.5 ppm is above 90%.
Regarding `Cn1c(OCC(F)(F)C(F)(F)F)ncc(-c2nc3ccc(Br)cn3c2S(N)(=O)=O)c1=O` [compound 6], the mortality at 200 ppm in experiment [7], in experiment [2] and in [3] was at least 80% throughout. Further, in experiment [3], the mortality at 50 ppm is at least 80%. For the same compound, the mortality at 500 ppm in [4] and in experiment [6] was at least 80% in each case.
The compound `CNS(=O)(=O)c1c(-c2cnc(OCC(F)(F)C(F)(F)F)n(C)c2=O)nc2ccc(I)cn12` [compound 7] displayed a mortality at 40 mg/m2, 40 mg/m2 in experiment [1] of at least 80%. The mortality at 200 ppm in experiment [7], in experiment [2] and in experiment [3] was at least 80% throughout. For the same compound, the mortality at 50 ppm in experiment [3] was at least 80%. Besides, the mortality at 500 ppm in experiment [4] and in experiment [6] was at least 80% throughout. In experiment [5], the mortality at 3.5 ppm is above 90%.
Consider `CNS(=O)(=O)c1c(-c2cnc(OCC(F)(F)C(F)(F)F)n(C)c2=O)nc2cc(I)ccn12` [compound 8], for which the mortality at 40 mg/m2, 40 mg/m2 in [1] and in [9] was at least 80% each time. Also, the mortality at 200 ppm in experiment [7], in experiment [2] and in [3] was at least 80% each time. For the same compound, the mortality at 50 ppm in experiment [3] is at least 80%. The mortality at 500 ppm in experiment [4] and in [6] was at least 80% in each case. For the same compound, the mortality at 3.5 ppm in [5] was above 90%.
For `CNS(=O)(=O)c1c(-c2cnc(OCC(F)(F)C(F)(F)F)n(C)c2=O)nc2ccc(C(F)(F)F)cn12` [compound 9], the mortality at 200 ppm in experiment [7], in experiment [2] and in experiment [3] was at least 80% each time. In experiment [3], the mortality at 50 ppm is at least 80%. In addition, the mortality at 500 ppm in experiment [4] and in experiment [6] was at least 80% throughout. In [5], the mortality at 3.5 ppm is above 90%.
As to `CNS(=O)(=O)c1c(-c2cnc(OCC(F)(F)C(F)(F)F)n(C)c2=O)nc2cc(C(F)(F)F)ccn12` [compound 10], the mortality at 40 mg/m2, 40 mg/m2 in experiment [1] and in [9] was at least 80% throughout. Moreover, the mortality at 200 ppm in [7], in experiment [2] and in experiment [3] was at least 80% each time. The compound also came in with a mortality at 50 ppm in [3] of at least 80%. In addition, the mortality at 500 ppm in experiment [4] and in experiment [6] was at least 80% throughout. Also, the mortality at 3.5 ppm in experiment [5] is above 90%.
As to `CN(C)S(=O)(=O)c1c(-n2cnc3ccc(OC(F)(F)F)cc3c2=O)nc2ccc(I)cn12` [compound 11], the mortality at 200 ppm in experiment [7], in experiment [2] and in experiment [3] was at least 80% each time. In addition, in [3], the mortality at 50 ppm was at least 80%. Besides, the mortality at 500 ppm in experiment [4] and in [6] was at least 80% each time.
With `CNS(=O)(=O)c1c(-n2cnc3ccc(OC(F)(F)F)cc3c2=O)nc2ccc(I)cn12` [compound 12], the mortality at 200 ppm in experiment [7], in experiment [2] and in experiment [3] was at least 80% in each case. The mortality at 50 ppm in [3] is at least 80%. For the same compound, the mortality at 500 ppm in experiment [4] and in experiment [6] was at least 80% throughout.
